From PubChem BioAssay AID602311 (The Scripps Research Institute Molecular Screening Center, 2012)
The source made the active and inactive calls. No rule for the calls is given here.

Key:
Assay in all cases: serine hydrolase off-target inhibition in mouse brain, late-stage follow-up, selectivity assay for DAGLb inhibitor project, biochemical, gel-based competitive ABPP, mouse brain membrane, set 1 (AID 602311)
[1] = target: Monoacylglycerol lipase ABHD6 (Mus musculus) (UniProt Q8R2Y0); conditions: gel-based competitive ABPP fluorescence, at 10 µM, hits give high values
Sequence of Monoacylglycerol lipase ABHD6 (Mus musculus) (Q8R2Y0 whole entry, looked up): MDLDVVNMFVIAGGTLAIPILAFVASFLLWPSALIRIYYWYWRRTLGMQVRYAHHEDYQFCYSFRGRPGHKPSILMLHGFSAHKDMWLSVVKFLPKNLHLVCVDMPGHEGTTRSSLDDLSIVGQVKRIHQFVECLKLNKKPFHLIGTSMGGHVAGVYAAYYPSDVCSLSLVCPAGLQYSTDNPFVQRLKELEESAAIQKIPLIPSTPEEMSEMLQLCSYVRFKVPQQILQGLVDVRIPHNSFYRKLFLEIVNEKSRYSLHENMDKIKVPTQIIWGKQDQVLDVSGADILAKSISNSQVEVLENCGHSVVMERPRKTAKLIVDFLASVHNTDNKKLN

LYPLA2 = conditions: gel-based competitive ABPP fluorescence, at 10 µM, hits give high values
APEH = conditions: gel-based competitive ABPP fluorescence, at 10 µM, hits give high values
MAGL = conditions: gel-based competitive ABPP fluorescence, at 10 µM, hits give high values
[2] = target: Acyl-protein thioesterase 1 (Mus musculus) (UniProt P97823); conditions: gel-based competitive ABPP fluorescence, LYPLA1, at 10 µM, hits give high values
Sequence of Acyl-protein thioesterase 1 (Mus musculus) (P97823 whole entry, looked up): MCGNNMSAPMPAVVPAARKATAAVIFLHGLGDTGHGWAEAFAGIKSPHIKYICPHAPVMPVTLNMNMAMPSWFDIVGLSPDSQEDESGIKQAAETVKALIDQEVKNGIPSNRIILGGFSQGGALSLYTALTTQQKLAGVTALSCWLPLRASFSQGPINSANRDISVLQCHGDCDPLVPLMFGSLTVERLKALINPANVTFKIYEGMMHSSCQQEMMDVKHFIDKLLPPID

KIAA1363 = conditions: gel-based competitive ABPP fluorescence, at 10 µM, hits give high values
FAAH = conditions: gel-based competitive ABPP fluorescence, at 10 µM, hits give high values
ABHD12 = conditions: gel-based competitive ABPP fluorescence, at 10 µM, hits give high values

SMILES | inhibition [1] [%] | inhibition (LYPLA2) | inhibition (APEH) | inhibition (MAGL) | inhibition [2] | inhibition (KIAA1363) | inhibition (FAAH) | inhibition (ABHD12)
O=C(N1CCCCC1Cc1ccccc1)n1cc(-c2ccc(Br)cc2)nn1 (stereo not drawn) | 90 | 0% (inactive) | 0% (inactive) | 90% | 0% (inactive) | 0% (inactive) | 90% | 0% (inactive)
O=C(N1CCCCC1c1ccccc1)n1cc(C(O)(c2ccccc2)c2ccccc2)nn1 (stereo not drawn) | 100 | 100% | 95% | 0% (inactive) | 100% | 100% | 55% | 0% (inactive)
O=C(N1CCCCC1Cc1ccccc1)n1ncc(C(O)(c2ccccc2)c2ccccc2)n1 (stereo not drawn) | 85 | 0% (inactive) | 0% (inactive) | 0% (inactive) | 0% (inactive) | 0% (inactive) | 0% (inactive) | 0% (inactive)
O=C(N1CCCCC1Cc1ccccc1)n1cc(-c2cc(F)cc(F)c2)nn1 (stereo not drawn) | 90 | 50% | 0% (inactive) | 95% | 50% | 85% | 98% | 0% (inactive)
O=C(N1CCCCC1Cc1ccccc1)n1cc(-c2ccc(-c3ccc4c(c3)OCO4)cc2)nn1 (stereo not drawn) | 90 | 0% (inactive) | 0% (inactive) | 0% (inactive) | 0% (inactive) | 0% (inactive) | 50% | 0% (inactive)
O=C(N1CCCCC1Cc1ccccc1)n1cc(-c2ccc(OC(F)(F)F)cc2)nn1 (stereo not drawn) | 90 | 0% (inactive) | 0% (inactive) | 40% (inactive) | 0% (inactive) | 40% (inactive) | 65% | 0% (inactive)
O=C(c1ccc(-c2cn(C(=O)N3CCCCC3Cc3ccccc3)nn2)cc1)N1CCCCC1 (stereo not drawn) | 98 | 25% (inactive) | 0% (inactive) | 0% (inactive) | 25% (inactive) | 0% (inactive) | 55% | 0% (inactive)
O=C(N1CCCCC1Cc1ccccc1)n1cc(-c2ccc(-c3ccccc3)cc2)nn1 (stereo not drawn) | 95 | 0% (inactive) | 0% (inactive) | 0% (inactive) | 0% (inactive) | 0% (inactive) | 0% (inactive) | 0% (inactive)
O=C(N1CCCCC1Cc1ccccc1)n1cc(-c2ccc(-c3ccc(OC(F)(F)F)cc3)cc2)nn1 (stereo not drawn) | 90 | 0% (inactive) | 0% (inactive) | 0% (inactive) | 0% (inactive) | 55% | 45% (inactive) | 0% (inactive)
O=C(N(CCc1ccccc1)Cc1ccco1)n1cc(-c2ccc(OC(F)(F)F)cc2)nn1 | 95 | 0% (inactive) | 0% (inactive) | 10% (inactive) | 0% (inactive) | 55% | 95% | 0% (inactive)
CC(C)(C)OC(=O)NCCCCCN(CCc1ccccc1)C(=O)n1cc(-c2ccc(OC(F)(F)F)cc2)nn1 | 95 | 0% (inactive) | 0% (inactive) | 10% (inactive) | 0% (inactive) | 0% (inactive) | 0% (inactive) | 0% (inactive)
CC(C)CN(CCc1ccccc1)C(=O)n1cc(-c2ccc(OC(F)(F)F)cc2)nn1 | 90 | 0% (inactive) | 0% (inactive) | 0% (inactive) | 0% (inactive) | 0% (inactive) | 0% (inactive) | 0% (inactive)
O=C(c1ccc(-c2ccc(-c3cn(C(=O)N4CCCCC4Cc4ccccc4)nn3)cc2)cc1)N1CCCCC1 (stereo not drawn) | 85 | 0% (inactive) | 0% (inactive) | 0% (inactive) | 0% (inactive) | 10% (inactive) | 10% (inactive) | 0% (inactive)
O=C(N1CCCCC1Cc1ccccc1)n1ncc(-c2ccc(OC(F)(F)F)cc2)n1 (stereo not drawn) | 85 | 0% (inactive) | 0% (inactive) | 0% (inactive) | 0% (inactive) | 90% | 98% | 0% (inactive)

Results, then the compound that gave them:

inhibition [1] [%] | inhibition (LYPLA2) | inhibition (APEH) | inhibition (MAGL) | inhibition [2] | inhibition (KIAA1363) | inhibition (FAAH) | inhibition (ABHD12) | SMILES
85 | 0% (inactive) | 0% (inactive) | 1% (inactive) | 0% (inactive) | 10% (inactive) | 65% | 0% (inactive) | O=C(N1CCCCC1Cc1ccccc1)n1cc(-c2ccc(-c3cccc(C(F)(F)F)c3)cc2)nn1 (stereo not drawn)
98 | 0% (inactive) | 0% (inactive) | 10% (inactive) | 0% (inactive) | 0% (inactive) | 40% (inactive) | 0% (inactive) | O=C(N1CCCCC1Cc1ccccc1)n1cc(-c2ccc(-c3ccoc3)cc2)nn1 (stereo not drawn)
95 | 0% (inactive) | 0% (inactive) | 10% (inactive) | 0% (inactive) | 20% (inactive) | 30% (inactive) | 0% (inactive) | O=C(N1CCCCC1Cc1ccccc1)n1cc(-c2ccc(-c3ccccc3Cl)cc2)nn1 (stereo not drawn)
95 | 20% (inactive) | 0% (inactive) | 95% | 20% (inactive) | 0% (inactive) | 55% | 10% (inactive) | O=C(N1CCCCC1Cc1ccccc1)n1cc(-c2ccc(-c3ccccc3CO)cc2)nn1 (stereo not drawn)
98 | 0% (inactive) | 0% (inactive) | 0% (inactive) | 0% (inactive) | 0% (inactive) | 30% (inactive) | 0% (inactive) | Cc1ccccc1-c1ccc(-c2cn(C(=O)N3CCCCC3Cc3ccccc3)nn2)cc1 (stereo not drawn)
80 | 10% (inactive) | 0% (inactive) | 75% | 10% (inactive) | 0% (inactive) | 98% | 0% (inactive) | O=C(N1CCCCC1Cc1ccccc1)n1cc(-c2ccccc2-c2ccccc2)nn1 (stereo not drawn)
90 | 0% (inactive) | 0% (inactive) | 10% (inactive) | 0% (inactive) | 0% (inactive) | 40% (inactive) | 0% (inactive) | O=C(N1CCCCC1Cc1ccccc1)n1cc(-c2ccc(-c3cccc(CO)c3)cc2)nn1 (stereo not drawn)
85 | 0% (inactive) | 0% (inactive) | 80% | 0% (inactive) | 0% (inactive) | 65% | 0% (inactive) | O=C(N1CCCCC1Cc1ccccc1)n1cc(-c2cccc(-c3ccccc3)c2)nn1 (stereo not drawn)
90 | 0% (inactive) | 0% (inactive) | 10% (inactive) | 0% (inactive) | 60% | 55% | 0% (inactive) | O=C(N1CCCCC1Cc1ccccc1)n1cc(-c2ccc(-c3ccc(C(F)(F)F)cc3)cc2)nn1 (stereo not drawn)
85 | 0% (inactive) | 0% (inactive) | 60% | 0% (inactive) | 25% (inactive) | 45% (inactive) | 0% (inactive) | O=C(N1CCCCC1Cc1ccccc1)n1cc(-c2ccc(-c3ccccc3OC(F)(F)F)cc2)nn1 (stereo not drawn)
85 | 0% (inactive) | 0% (inactive) | 70% | 0% (inactive) | 0% (inactive) | 10% (inactive) | 0% (inactive) | COc1ccccc1-c1ccc(-c2cn(C(=O)N3CCCCC3Cc3ccccc3)nn2)cc1 (stereo not drawn)
80 | 0% (inactive) | 0% (inactive) | 1% (inactive) | 0% (inactive) | 0% (inactive) | 40% (inactive) | 0% (inactive) | O=C(N1CCCCC1Cc1ccccc1)n1cc(-c2ccc(-c3ccccc3C(F)(F)F)cc2)nn1 (stereo not drawn)
